Experimental data published in patent publication EP0051084A1, “Substituted 1H-1,2,4-triazoles” (AMERICAN CYANAMID COMPANY, priority 1980, dated 1982).

Each compound was assayed on Adjuvant induced experimental polyarthritis (assay: Adjuvant Arthritis Assay). Settings: rats, 50 mg./kg. orally once daily on days 0 through 13 post-challenge; injected paw measured on 14th day; RSA = treated/control.
Assay type: in vivo, Royal Hart Wistar strain rats
Set-up: key: Active: If the mean RSA of all three tests is less than 0.753, the compound is considered active
Text: Adjuvant induced experimental polyarthritis is a specific systemic disease of the rat which shares interesting similarities with rheumatoid arthritis. Specifically, the histology of the two diseases bears a remarkable resemblence as shown by C. M. Pearson, et al, Am. J. Path., 42, 73 (1963). E. M. Glenn, Am. J. Vet. Res., 27, (116), 339 (1966) has classified adjuvant induced polyarthritis as a crippling and permanent deformity resulting from diffuse connective tissue involvement around certain susceptible joints in the rat. Zahiri, et al., Can. Med. Ass. J., 101, 269 (1969) have shown that the fusiform swelling of the distal joints is associated with edema, congestion and synovitis including pannus formation, all of which precede the ultimate destruction of bone and cartilage. Furthermore, Zahiri, et al., indicate that the cartilage destruction in the joint is due to an invasive pannus which originates in the marginal synovium and extends across the articular surface to erode it. […] The most pointed reference showing the relationship between arthritis and joint deterioration is "An X-Ray Analysis of Adjuvant Arthritis in the Rat; the Effect of Prednisolone and Indomethacin", Blackham, et al., Agents and Action, 7 (No. 1), 145-151 (1977). In a similar manner, inhibition of the progress of arhtritis in paws of rats treated with the compounds of this invention also lessens associated joint deterioration.
Groups of three Royal Hart Wistar strain rats, weighing 200 + 10 g. each were injected intradermally in the right hind paw with Freund's adjuvant (dried human tubercle bacilli in a mineral oil vehicle) at a dose of 2 mg./kg. of body weight. Test compounds were administered orally in a 1.5% starch vehicle at 50 mg./kg. of body weight once daily on days 0 through 13 post-challenge. Control rats were treated in a similar manner, buty given only starch vehicle. On the l4th day post-challenge the diameter of the injected paw (primary lesion) was measured by micrometer caliper. From these measurements of inflamed paws a determination was made of the relative surface area (RSA). This is a ratio of the mean surface area of the paws of 3 treated rats/mean surface area of the paws of 60 control rats. If the RSA is equal to or less than 0.76, the compound is retested. After the second test, the mean RSA for the rat paws from both tests is calculated and if it is equal to or less than 0.736 the compound is tested a third time. If the mean RSA of all three tests is less than 0.753, the compound is considered active.

| SMILES | Result (relative surface area (RSA) of injected paw) |
| --- | --- |
| N#CCC(=O)Nc1ccc(-c2ncnn2-c2ccc(F)cc2)cc1 | Active |
| Nc1ccc(-n2ncnc2-c2ccc(F)cc2)cc1 [1-(p-AminopUhenyl)-5-(p-fluorophenyl)-1H-1,2,4-triazole] | Active |
| O=[N+]([O-])c1ccc(-c2ncnn2-c2ccc(Br)cc2)cc1 [1-(p-Bromophenyl)-5-(p-nitrophenyl)-1H-1,2,4-triazole] | Active |
| O=[N+]([O-])c1ccc(-c2ncnn2-c2ccc(F)cc2)cc1 [1-(p-Fluorophenyl)-5-(p-nitrophenyl)-1H-1,2,4-triazole] | Active |
| CN(C)C=Nc1ccc(-c2ncnn2-c2ccc(F)cc2)cc1 [1-(p-Fluorophenyl)-5-[p-[(dimethylaminomethylene)-amino]phenyl]-1H-1,2,4-triazole] | Active |
| Nc1ccc(-c2ncnn2-c2ccc(Cl)cc2)cc1 [5-(p-Aminophenyl)-1-(p-chlorophenyl)-1H-1,2,4-triazole] | Active |
| Nc1ccc(-c2ncnn2-c2ccc(F)cc2)cc1 [5-(p-Aminophenyl)-1-(p-fluorophenyl)-1H-1,2,4-triazole] | Active |
| Nc1ccc(-c2ncnn2-c2ccccc2F)cc1 [5-(p-Aminophenyl)-l-(o-fluorophenyl)-lH-l,2,4-triazole] | Active |
| Nc1ccc(-c2ncnn2-c2ccc(Br)cc2)cc1 [5-(p-Aminophenyl)-l-(p-bromophenyl)-lH-l,2,4-triazole] | Active |
| O=[N+]([O-])c1ccc(-n2ncnc2-c2ccc(F)cc2)cc1 [5-(p-Fluorophenyl)-1-(p-nitrophenyl)-1H-1,2,4-triazole] | Active |
| O=[N+]([O-])c1ccc(-c2ncnn2-c2ccccc2)cc1 [l-Phenyl-5-(p-nitrophenyl)-lH-l,2,4-triazole] | Active |

These compounds were tested on migration of macrophages (assay: Migratory Inhibition Test (capillary tube migration assay for MIF inhibitors)). Settings: Dose 10 mcg./ml.; guinea pig peritoneal cells, 37°C. for 24 hours.
Assay type: cell-based, Male Hartley guinea pigs
Set-up: key: Active: Greater than 15% reversal of inhibition, c-b/a-b
Text: Migratory Inhibition Test
Rheumatoid arthritis is a chronic inflammatory disease that is characterized by the migration of lymphocytes, macrophages and polymorphonuclear leukocytes to the sites of inflammation. The migration of lymphocytes and macrophages and their multiplication in situ is one reason for the very large increase in size of the normally thin synovial membrane which encloses the joint space. This transformed synovial membrane slowly grows over the articular surfaces and causes the destruction of the articular cartilage and other connective tissue structures of the joint. One of the mechanisms for the destruction of articular cartilage by the synovium is through the release of various hydrolytic enzymes by the resident macrophages which have been immobilized and activated by migration inhibitory factor (MIF). Macrophages stimulated by MIF are termed "activated macrophages" and undergo the following changes: (a) increased glucose oxidation, (b) increased ruffling of plasma membrane and increased spreading of cells, (c) synthesis and secretion of neutral proteases, (d) release of preformed lysosomal enzymes, (e) decreased migration from a capillary tube. […] The mechanism of cartilage destruction can be pictured as follows: [formula]
Drugs that can therefore block the release of MIF by lymphocytes or the activation of macrophages by MIF may be clinically effective in retarding the destructive joint damage which occurs in rheumatoid arthritis. Drugs can be tested as MIF inhibitors by using the capillary tube migration assay as follows: Male Hartley guinea pigs, weighing between 300 and 600 grams, were injected intraperitoneally with 25 ml. of Marcal 52 Oil@ (Humble Oil Co.). Three to four days later the guinea pigs were decapitated, the peritoneum opened and 50 ml. of cold Hank's solution added to the peritoneum. The Hank's solution containing the cell suspension was then aspirated into a separatory funnel. This procedure was repeated twice. […] Viability of the cells was then determined using trypan blue. […]

| SMILES | Result (reversal of antigen inhibition of macrophage migration) |
| --- | --- |
| O=[N+]([O-])c1ccc(-c2ncnn2-c2ccc(Br)cc2)cc1 [1-(p-Bromophenyl)-5-(p-nitrophenyl)-1H-1,2,4-triazole] | Active |
| c1ccc(-n2ncnc2-c2ccncc2)cc1 [4-(1-Phenyl-1H-1,2,4-triazol-5-yl)pyridine] | Active |
| Nc1ccc(-c2ncnn2-c2ccc(Br)cc2)cc1 [5-(p-Aminophenyl)-l-(p-bromophenyl)-lH-l,2,4-triazole] | Active |

What follows are compounds tested on carrageenin inflamed feet (assay: Carrageenin Edema Assay). Settings: rats, 250 mg./kg. by gavage; measured 5 hours after drug administration (4 hours after carrageenin challenge).
Assay type: in vivo, Royal Hart, Wistar strain rats
Set-up: key: Active: If the mean ratio of test 1 and 2 is equal to or greater than 1.43, the compound is considered active
Protocol: Royal Hart, Wistar strain rats ranging in weight from 80 to 90 grams were used. The rats were fasted overnight prior to dosing but had free access to water. The test compounds were administered in aqueous suspension, by gavage, in a volume of 1.7 ml. per 50 grams of rat [corresponds to hydration volume used by Winter, et al., Proc. Soc. Exp. Biol. & Med., Ill, 544-547 (1962)]. The dose of all compounds was 250 mg./kq. The phlogistic agent used was carrageenin prepared as a sterile 1% suspension in 0.9% aqueous sodium chloride for routine testing. A volume of 0.05 ml. was injected into the plantar tissue of the right hind paw. Measurements were made 5 hours after drug administration (4 hours after carrageenin challenge). The paw of the unanesthetized rat was immersed in mercury exactly to an ink mark on the skin over the lateral malleolus. The mercury was contained in a glass cylinder 25 x 60 mm. The mercury column was connected with a Statham pressure transducer (model P23BB), range 0-5 cm. mercury. The output from the transducer was led through a model 260BLH signal conditioning unit and visualized by digital indicator. Volumes of both the normal and carrageenin inflamed feet were determined. The difference between the two measurements was considered to be the increased edema due to the carrageenin administration. Results were expressed as a control (C)/treated (T) efficacy ratio. (The ratio of mean edema volume of 8 control rats over the mean edema volume of 2 treated rats.) If the C/T ratio is equal to or greater than 1.41, the test is repeated. If the mean ratio of test 1 and 2 is equal to or greater than 1.43, the compound is considered active. The results of this test with typical compounds of this invention are recorded in Table

| SMILES | Result (control (C)/treated (T) efficacy ratio of edema volume) |
| --- | --- |
| c1ccc(-c2ncnn2-c2ccccc2)cc1 [1,5-Diphenyl-1H-1,2,4-triazole, 1,5-Diphenyl-lH-1,2,4-triazole] | Active |
| COc1cc(-c2nc(C)nn2-c2ccc(Br)cc2)cc(OC)c1OC [1-(p-Bromophenyl)-3-methyl-5-(3,4,5- -trimethoxyphenyl)-lH-1,2,4-triazole] | Active |
| Clc1ccc(-n2ncnc2-c2cnccn2)cc1 [2-fl-(p-Chlorophenyl)-lH-1,2,4-triazol-5-yllpyrazine] | Active |
| c1cncc(-c2nnc[nH]2)c1 [3-(4H-1,2,4-Triazol-3-yl)-pyridine] | Active |
| c1ccc(-n2ncnc2-c2ccncc2)cc1 [4-(1-Phenyl-1H-1,2,4-triazol-5-yl)pyridine] | Active |
| Fc1ccc(-n2ncnc2-c2ccncc2)cc1 [4-[1-(p-Fluorophenyl)-1H-1,2,4-triazol-5-yl]pyridine] | Active |
| O=[N+]([O-])c1ccc(-n2ncnc2-c2cnccn2)cc1 [(1-(p-Nitrophenyl)-1H-1,2,4-triazol-5-yl]pyrazine] | Active |
| O=S(=O)(c1ccc(-n2ncnc2-c2cnccn2)cc1)C(F)F [{1-[p-(Difluoromethylsulfonyl)phenyl]-1H-1,2,4--triazol-5-yl}pyrazine] | Active |
